From PMC6458156, “Improved predictions of time-dependent drug-drug interactions by determination of cytosolic drug concentrations” (Scientific Reports, 2019)
Where two headings read alike, the source gives them in different places.

Key:
human hepatocytes [1] = test: Cytosolic drug accumulation ratio (Kpcyto) and cytosolic bioavailability (Fcyto) in human hepatocytes with chloroquine; assay type: in vitro ADME; settings: for Kpcyto: cellular drug accumulation ratio in the presence of chloroquine (100 µM, 45 min), 0.5 µM drug; for Fcyto: cytosolic bioavailability = fu,cell × Kpcyto; for Fcyto / Fic/Fcyto: human hepatocytes; for Fic/Fcyto: ratio of intracellular to cytosolic bioavailability; for Kp compared with Kpcyto: absence vs presence of chloroquine, p ≤ 0.05 in Student’s t-test where called significant
[2] = Non-specific binding of drugs in human liver microsomes (fu,mic), rapid equilibrium dialysis; assay type: in vitro ADME; settings: unbound drug fraction in the microsomal mixture, inhibitor 1 µM, 37 °C
human hepatocytes [3] = test: Intracellular drug accumulation ratio (Kp) and intracellular bioavailability (Fic) in cryopreserved human hepatocytes; assay type: in vitro ADME; settings: intracellular bioavailability = fu,cell × Kp; human hepatocytes
CYP3A [4] = target: T1, CYP3A (Homo sapiens, UniProt P08684); test: in vitro
[5] = Intracellular fraction of unbound drug (fu,cell), dialysis of human hepatocyte homogenate; assay type: in vitro ADME; settings: homogenate of cryopreserved human hepatocytes, geometrical mean ± SD of triplicates
[6] = cited from earlier work; for Fa: fraction absorbed, 6,18 (diltiazem), 26-28 (nefazodone), 29,30 (nilotinib), 29,31 (pazopanib); for Fa / ka: ref 5,17 (crizotinib), 19-21 (erythromycin), 22-25 (imatinib), 20,32,33 (roxithromycin), 4,34 (telithromycin); for Cmax,ss: maximum plasma concentration at steady-state; for ka: absorption rate constant, 35-40 (verapamil); for Cave,ss: average plasma concentration at steady-state
CYP3A [7] = target: T1, CYP3A; settings: probe drugs midazolam and simvastatin, in vivo; ref University of Washington Drug Interaction Database; cited from earlier work
CYP3A [8] = target: T1, CYP3A; test: in vitro; settings: microsomes, pH 7.4
CYP3A4 [9] = system: CYP3A4; set-up: method as in earlier work; settings: ref DIDB; cited from earlier work
OCT1 = settings: read-out: IC50 (OCT1); ref DIDB; cited from earlier work
MATE2-K = settings: read-out: IC50 (MATE2-K); ref DIDB; cited from earlier work
P-gp = settings: read-out: Ki (P-gp); ref DIDB; cited from earlier work
OATP1A2 = settings: read-out: IC50 (OATP1A2); ref DIDB; cited from earlier work
MATE1 = settings: read-out: IC50 (MATE1); ref DIDB; cited from earlier work
CYP2D6 = system: CYP2D6; set-up: method as in earlier work; settings: in HLM; ref DIDB; cited from earlier work
OCT2 = settings: read-out: IC50 (OCT2); ref DIDB; cited from earlier work
[10] = Intracellular drug accumulation ratio (Kp) and intracellular bioavailability (Fic) in cryopreserved human hepatocytes; assay type: in vitro ADME; settings: human, cryopreserved human hepatocytes in suspension; cellular drug accumulation ratio; 0.5 µM drug; no chloroquine; geometrical mean ± SD of triplicates
CYP3A4 [11] = settings: midazolam; cited from earlier work
transporters = system: transporters; set-up: method as in earlier work; settings: cells wrapped over several lines are given as printed fragments; ref DIDB; cited from earlier work
[12] = blood-to-plasma ratio; Predicted within/obtained from Simcyp; ref Simcyp (Simcyp Limited, UK); cited from earlier work
[13] = HLM 0.1 mg/ml, read-out: fu,mic at 0.1 mg/ml
[14] = HLM 0.5 mg/ml, read-out: fu,mic at 0.5 mg/ml
[15] = pH 7.4, KI, inactivation constant, HLM 0.5 mg/ml preincubation 0-30 min, midazolam 20 µM, mean ± SD of triplicates
[16] = pH 7.4, KI,u, calculated as fu,mic at 0.5 mg/ml × KI

T1 sequence (P08684 2-503): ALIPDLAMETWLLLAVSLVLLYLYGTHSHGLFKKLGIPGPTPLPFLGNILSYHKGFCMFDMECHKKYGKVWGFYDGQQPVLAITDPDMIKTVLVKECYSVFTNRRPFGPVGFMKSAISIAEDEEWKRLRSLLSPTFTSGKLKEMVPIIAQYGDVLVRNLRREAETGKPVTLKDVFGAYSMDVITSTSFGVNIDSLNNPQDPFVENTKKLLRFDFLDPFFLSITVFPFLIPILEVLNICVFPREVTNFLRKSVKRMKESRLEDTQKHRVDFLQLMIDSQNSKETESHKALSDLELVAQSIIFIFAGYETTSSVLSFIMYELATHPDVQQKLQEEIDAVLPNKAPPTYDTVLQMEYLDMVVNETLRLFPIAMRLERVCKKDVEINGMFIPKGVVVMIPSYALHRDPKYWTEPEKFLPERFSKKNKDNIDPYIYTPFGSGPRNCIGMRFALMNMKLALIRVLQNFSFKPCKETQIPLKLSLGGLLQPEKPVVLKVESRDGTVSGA

| SMILES | Kpcyto (human hepatocytes [1]) | Fcyto (human hepatocytes [1]) | fraction unbound at 4 h, 1 µM [2, 13] | fraction unbound at 4 h, 1 µM [2, 14] | Fic (human hepatocytes [3]) | KI (inactivation) (CYP3A [4]; [15]) | KI (inactivation) (CYP3A [4]; [16]) | fraction unbound at 4 h [5] | Fa [6] | class of CYP3A inhibitor by increase in AUC of the probe drug (CYP3A [7]) | IC50 at 5 min (CYP3A [8]) | Ki at 5 min (CYP3A [8]) | Kp at 0.5 µM [10] | ka [6] | further results |
| --- | --- | --- | --- | --- | --- | --- | --- | --- | --- | --- | --- | --- | --- | --- | --- |
| Cc1cn(-c2cc(NC(=O)c3ccc(C)c(Nc4nccc(-c5cccnc5)n4)c3)cc(C(F)(F)F)c2)cn1 [Nilotinib] | 51 ± 9 | 0.008 ± 0.001 | 0.195 | 0.121 | 0.022 ± 0.001 | 1.29 ± 0.23 µM | 0.156 µM | 0.0002 | 0.30 | medium (medium inhibitors causing a ≥2 but <5-fold increase) | 1.31 ± 0.3 µM | 0.128 µM | – | – | – |
| COc1ccc([C@@H]2Sc3ccccc3N(CCN(C)C)C(=O)[C@@H]2OC(C)=O)cc1 [Diltiazem] | – | – | 0.792 | 0.708 | – | – | – | – | – | – | – | – | – | – | Cmax,ss ([6]; 60 mg tid): 70 ng/mL; Cmax,ss ([6]; 240 mg qd): 166 ng/mL |
| CCN(CC)CCCC(C)Nc1ccnc2cc(Cl)ccc12 (stereo not shown) [Chloroquine] | – | – | – | – | – | – | – | – | – | – | – | – | – | – | IC50 (CYP3A4 [9]): 150 µM; IC50 (OCT1): 13 µM; IC50 (MATE2-K): 4 µM; Ki (P-gp): […]; IC50 (OATP1A2): […]; IC50 (MATE1): 1.5 µM; IC50 (CYP2D6): ~50 µM; IC50 (OCT2): ~100 µM |
| CC[C@H]1OC(=O)[C@H](C)[C@@H](O[C@H]2C[C@@](C)(OC)[C@@H](O)[C@H](C)O2)[C@H](C)[C@@H](O[C@@H]2O[C@H](C)C[C@H](N(C)C)[C@H]2O)[C@](C)(O)C[C@@H](C)C(=O)[C@H](C)[C@@H](O)[C@]1(C)O [Erythromycin] | 1.2 ± 4.33 | 0.052 ± 0.192 | 0.64 | 0.586 | 0.066 ± 0.104 | – | – | 0.0444 ± 0.0013 | 0.65 | – | – | – | 1.5 ± 2.4 | 0.6 h⁻¹ | Cave,ss ([6]; 500 mg tid): 361 ng/mL; Cmax,ss ([6]; 500 mg tid): 821 ng/mL |
| Cc1ncc2n1-c1ccc(Cl)cc1C(c1ccccc1F)=NC2 [midazolam, Midazolam] | – | – | – | – | – | – | – | – | – | – | – | – | – | – | fraction metabolized by CYP3A4 (fm) (CYP3A4 [11]): 0.94; fraction of drug escaping CYP3A4-mediated gut metabolism (FG) (CYP3A4 [11]): 0.51 |
| CCc1nn(CCCN2CCN(c3cccc(Cl)c3)CC2)c(=O)n1CCOc1ccccc1 [Nefazodone] | 11 ± 1.6 | 0.021 ± 0.003 | 0.187 | 0.18 | 0.015 ± 0.002 | – | – | 0.0019 ± 0.0001 | 1.00 | – | 2.59 ± 0.22 µM | 0.242 µM | 8.1 ± 1.3 | – | Fic/Fcyto (human hepatocytes [1]): 0.74; Cave,ss ([6]; 200 mg bid): 582 ng/mL; Cmax,ss ([6]; 200 mg bid): 1,400 ng/ml |
| Cc1ccc(Nc2nccc(N(C)c3ccc4c(C)n(C)nc4c3)n2)cc1S(N)(=O)=O [Pazopanib] | – | – | – | – | – | – | – | – | 0.80 | – | – | – | – | – | Substrate of other transporters in vitro (transporters): OATP1B1/3, OCT1; Cave,ss ([6]; 800 mg qd): 30,971 ng/ml |
| Cc1ccc(NC(=O)c2ccc(CN3CCN(C)CC3)cc2)cc1Nc1nccc(-c2cccnc2)n1 [Imatinib] | – | – | – | – | – | – | – | – | – | – | – | – | – | – | Cmax,ss ([6]; 400 mg qd): 2,596 ng/ml |
| CC[C@H]1OC(=O)[C@H](C)[C@@H](O[C@H]2C[C@@](C)(OC)[C@@H](O)[C@H](C)O2)[C@H](C)[C@@H](O[C@@H]2O[C@H](C)C[C@H](N(C)C)[C@H]2O)[C@](C)(O)C[C@@H](C)/C(=N\OCOCCOC)[C@H](C)[C@@H](O)[C@]1(C)O [Roxithromycin] | 3.3 ± 0.75 | 0.08 ± 0.02 | 0.637 | 0.612 | 0.13 ± 0.01 | 31.4 ± 16.5 µM | 19.2 µM | 0.0241 ± 0.0004 | 0.86 | weak (weak inhibitors causing a ≥1.25 but <2-fold increase) | 82.4 ± 44.9 µM | 26.2 µM | 5.4 ± 0.3 | 4.96 h⁻¹ | Kp compared with Kpcyto (human hepatocytes [1]): significantly larger; Fic/Fcyto (human hepatocytes [1]): 1.61; Cave,ss ([6]; 300 mg qd): 5,413 ng/ml; Cmax,ss ([6]; 300 mg qd): 10,900 ng/ml; B/P [12]: 0.70 |
| C[C@@H](Oc1cc(-c2cnn(C3CCNCC3)c2)cnc1N)c1c(Cl)ccc(F)c1Cl [Crizotinib] | 70 ± 0.4 | 0.041 ± 0.005 | 0.505 | 0.118 | 0.044 ± 0.005 | 0.775 ± 0.13 µM | 0.091 µM | 0.0006 ± 0.0001 | 0.4 | medium (medium inhibitors causing a ≥2 but <5-fold increase) | > 100 µM | 97.4 µM | 75 ± 0.11 | 0.817 h⁻¹ | Substrate of other transporters in vitro (transporters): OATP1B1/3, 2B1; Ki (CYP3A [4]; microsomes, pH 7.4): 0.09 µM; Cave,ss ([6]; 100 mg qd): 45 ng/mL; Cave,ss ([6]; 250 mg bid): 129 ng/mL; Cave,ss ([6]; 300 mg bid): 169 ng/mL; Cmax,ss ([6]; 100 mg qd): 86 ng/mL; Cmax,ss ([6]; 250 mg bid): 327 ng/mL; Cmax,ss ([6]; 300 mg bid): 420 ng/mL |
| CC[C@H]1OC(=O)[C@H](C)C(=O)[C@H](C)[C@@H](O[C@@H]2O[C@H](C)C[C@H](N(C)C)[C@H]2O)[C@](C)(OC)C[C@@H](C)C(=O)[C@H](C)[C@H]2N(CCCCn3cnc(-c4cccnc4)c3)C(=O)O[C@]12C [Telithromycin] | 7.24 ± 0.8 | 0.27 ± 0.03 | 0.962 | 0.657 | 0.25 ± 0.03 | 1.49 ± 0.19 µM | 0.979 µM | 0.0371 ± 0.0016 | 0.92 | strong (strong inhibitors of CYP3A, causing a ≥5-fold increase in the area under the concentration-time curve (AUC) of the probe drug) | 14.1 ± 3.5 µM | 6.77 µM | 6.6 ± 0.6 | 0.95 h⁻¹ | Kp compared with Kpcyto (human hepatocytes [1]): comparable Kp and Kpcyto; Fic/Fcyto (human hepatocytes [1]): 0.92; Cave,ss ([6]; 800 mg qd): 425 ng/mL; Cmax,ss ([6]; 800 mg qd): 1,840 ng/ml |
| CC[C@H]1OC(=O)[C@H](C)[C@@H](O[C@H]2C[C@@](C)(OC)[C@@H](O)[C@H](C)O2)[C@H](C)[C@@H](O[C@@H]2O[C@H](C)C[C@H](N(C)C)[C@H]2O)[C@](C)(O)C[C@@H](C)CN(C)[C@H](C)[C@@H](O)[C@]1(C)O [Azithromycin] | – | – | 0.766 | 0.765 | – | – | – | – | – | – | – | – | – | – | – |
